The results in this text go back to patent US11479551B2, “MTA-cooperative PRMT5 inhibitors” (Mirati Therapeutics, Inc., priority 2019, dated 2022).

In one experiment the test system is HCT116 parental cells. The experiment in a line: Proliferation assay (CellTiter-Glo, 10 days of treatment), HCT116 parental. The experiment is classed as cell-based. The conditions noted are these: Homo sapiens, HCT-116, 240 h. The gist of the method: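 250 cells seeded in McCoy's 5A with 10% FBS, then given a dose response of PRMT5 inhibitor at 37 °C, 5% CO2 for five days. Cells were split 1:10 on Day 6 into fresh medium with the same compound concentration for 5 more days. Viability read on Day 11 by CellTiter-Glo; IC50 after 10 days of treatment.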

For experiment [1], the system named is PRMT5-dependent Symmetric Di-methyl Arginine signal in HCT116 homozygous MTAP knockout cells. The experiment in a line: SYM11 In-Cell Western, HCT116 MTAP knockout. The following applies: Homo sapiens, HCT-116, 96 h, HCT116 homozygous MTAP knockout cells, 4 days of treatment, SYM11/DRAQ5 ratio; read-out: In-cell-Western (SYM11) HCT116 MTAP_KO IC50. It is filed as cell-based.

Another experiment concerns the target PRMT5/MEP50 complex (Homo sapiens (Human), UniProt O14744). The experiment in a line: PRMT5:MEP50 HotSpot Assay (full-length histone H2A substrate, plus and minus MTA). It is filed as biochemical. The conditions noted are these: IC50 + 2 μM MTA, in the presence of 2 μM MTA. The essentials: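 Radiometric filter-binding format using recombinant full-length histone H2A as substrate. After the reaction was stopped, mixtures went onto filter paper and tritiated H2A was quantified by scintillation counting.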

For experiment [2], the system named is PRMT5-dependent Symmetric Di-methyl Arginine signal in HCT116 parental cells. Put plainly: SYM11 In-Cell Western, HCT116 parental. It is filed as cell-based. The following applies: Homo sapiens, HCT-116, 96 h, 4 days of treatment, SYM11/DRAQ5 ratio. The gist of the method:
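HCT116 parental cells (2,000/well, McCoy's 5A with 10% FBS) dosed with PRMT5 inhibitors for four days at 37° C. Fixed in paraformaldehyde and methanol, then stained with SYM11 antibody and DRAQ5.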

Experiment [3] concerns HCT116 homozygous MTAP knockout cells. The experiment in a line: Proliferation assay (CellTiter-Glo, 10 days of treatment), HCT116 MTAP knockout. The following applies: Homo sapiens, HCT-116, 240 h, read-out: Proliferation HCT116MTAP_KO IC50. The experiment is classed as cell-based. The essentials: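 Cells (250/well) seeded in McCoy's 5A with 10% FBS, then treated the next day with a PRMT5 inhibitor dose response at 37 °C, 5% CO2. On day 6 they were split 1:10 into fresh medium with the same compound concentration. CellTiter-Glo viability was read on day 11 and IC50 taken after 10 days of treatment.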
(ATP-based viability assays read luminescence as a measure of living cells.)

Structures are written as SMILES. Some results are limits rather than exact numbers.

Chain of PRMT5/MEP50 complex (O14744 2-637): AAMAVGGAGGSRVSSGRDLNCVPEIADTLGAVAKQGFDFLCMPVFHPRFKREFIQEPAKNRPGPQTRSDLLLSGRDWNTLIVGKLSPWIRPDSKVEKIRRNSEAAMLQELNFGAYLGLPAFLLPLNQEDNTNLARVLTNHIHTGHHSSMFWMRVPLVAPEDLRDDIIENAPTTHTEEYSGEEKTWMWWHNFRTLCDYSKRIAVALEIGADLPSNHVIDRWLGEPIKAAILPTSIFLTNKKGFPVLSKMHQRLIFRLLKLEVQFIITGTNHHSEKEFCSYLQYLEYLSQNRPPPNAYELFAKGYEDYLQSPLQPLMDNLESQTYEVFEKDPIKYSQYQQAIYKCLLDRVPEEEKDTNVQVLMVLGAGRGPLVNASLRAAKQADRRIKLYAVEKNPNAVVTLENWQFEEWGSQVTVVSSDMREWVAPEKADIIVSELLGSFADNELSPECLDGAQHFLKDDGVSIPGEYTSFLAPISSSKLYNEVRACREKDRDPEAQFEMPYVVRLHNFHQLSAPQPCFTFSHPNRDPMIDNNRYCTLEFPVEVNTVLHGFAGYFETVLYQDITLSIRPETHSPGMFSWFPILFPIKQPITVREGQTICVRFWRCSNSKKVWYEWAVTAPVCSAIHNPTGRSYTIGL
Chain of PRMT5/MEP50 complex (Q9BQA1 2-342 partner): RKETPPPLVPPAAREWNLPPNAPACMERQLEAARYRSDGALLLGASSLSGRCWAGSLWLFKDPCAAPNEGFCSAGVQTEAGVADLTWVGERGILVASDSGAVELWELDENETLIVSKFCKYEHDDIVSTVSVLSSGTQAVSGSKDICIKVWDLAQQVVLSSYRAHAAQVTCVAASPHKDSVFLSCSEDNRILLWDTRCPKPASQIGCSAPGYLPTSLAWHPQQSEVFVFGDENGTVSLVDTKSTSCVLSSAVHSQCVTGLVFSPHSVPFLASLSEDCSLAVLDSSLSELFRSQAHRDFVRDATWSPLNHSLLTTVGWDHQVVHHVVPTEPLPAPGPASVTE

As for `COc1cc(-c2c(-c3ccc4c(=O)[nH]nc(CN)c4c3)cnn2C)c(C#N)c2ccccc12` [Example 4-205, 2-(4-(4-(aminomethyl)-1-oxo-1,2-dihydrophthalazin-6-yl)-1-methyl-1H-pyrazol-5-yl)-4-methoxy-1-naphthonitrile], the IC50 in the experiment on HCT116 parental cells is 683 nM; in experiment [1], 6 nM; at PRMT5/MEP50 complex, 23 nM; in experiment [2], > 1000 nM; in experiment [3] it was 59 nM.

For `Cc1ccc(-c2c(-c3ccc4c(=O)[nH]nc(CN)c4c3)cnn2C)c(C#N)c1C` [Example 12-2, 6-(4-(4-(aminomethyl)-1-oxo-1,2-dihydrophthalazin-6-yl)-1-methyl-1H-pyrazol-5-yl)-2,3-dimethylbenzonitrile], the IC50 is 208 nM in the experiment with HCT116 parental cells; 16 nM in experiment [1]; 315 nM on PRMT5/MEP50 complex; 2200 nM in experiment [2]; > 10000 nM in experiment [3].

As to `CCc1cc(OC)cc(-c2c(-c3ccc4c(=O)[nH]nc(CN)c4c3)cnn2C)c1C#N` [Example 4-202, 2-(4-(4-(aminomethyl)-1-oxo-1,2-dihydrophthalazin-6-yl)-1-methyl-1H-pyrazol-5-yl)-6-ethyl-4-methoxybenzonitrile], the IC50 is 2370 nM in the experiment on HCT116 parental cells; 8 nM in experiment [1]; 255 nM at PRMT5/MEP50 complex; > 1000 nM in experiment [2]; 232 nM in experiment [3].

As to `COc1cc(-c2c(-c3ccc4c(=O)[nH]nc(CN)c4c3)cnn2C)c(C#N)cc1Cl` [Example 4-130, 2-(4-(4-(aminomethyl)-1-oxo-1,2-dihydrophthalazin-6-yl)-1-methyl-1H-pyrazol-5-yl)-5-chloro-4-methoxybenzonitrile], the IC50 in the experiment with HCT116 parental cells is > 10000 nM; in experiment [1], 24 nM; at PRMT5/MEP50 complex, 1950 nM; in experiment [2] it was > 10000 nM; in experiment [3], 756 nM.

On to `Cn1ncc(-c2cc(Cl)c3c(=O)[nH]nc(CN)c3c2)c1-c1cccc(Cl)c1C#N` [Example 10-3, 2-(4-(4-(aminomethyl)-8-chloro-1-oxo-1,2-dihydrophthalazin-6-yl)-1-methyl-1H-pyrazol-5-yl)-6-chlorobenzonitrile], for which the IC50 in the experiment with HCT116 parental cells was found to be 8480 nM; in experiment [1], 5 nM; at PRMT5/MEP50 complex it was 845 nM; in experiment [2] it was 3820 nM; in experiment [3] it was 240 nM.

Consider `Cc1cc(Cl)cc(-c2c(-c3ccc4c(=O)[nH]nc(CN)c4c3)cnn2C)c1C#N` [Example 4-180, 2-(4-(4-(aminomethyl)-1-oxo-1,2-dihydrophthalazin-6-yl)-1-methyl-1H-pyrazol-5-yl)-4-chloro-6-methylbenzonitrile], for which the IC50 amounted to 121 nM with HCT116 parental cells; 31.9 nM in experiment [1]; 597 nM on PRMT5/MEP50 complex; 1410 nM in experiment [2]; 7110 nM in experiment [3].

In the case of `CCc1cccc(-c2c(-c3cc(F)c4c(=O)[nH]nc(CN)c4c3)cnn2C)c1C#N` [Example 10-8, 2-(4-(4-(aminomethyl)-8-fluoro-1-oxo-1,2-dihydrophthalazin-6-yl)-1-methyl-1H-pyrazol-5-yl)-6-ethylbenzonitrile], the IC50 is > 10000 nM with HCT116 parental cells; 27 nM in experiment [1]; 660 nM at PRMT5/MEP50 complex; 4720 nM in experiment [2]; 276 nM in experiment [3].

Take `Cc1cc(C#N)c(-c2c(-c3ccc4c(=O)[nH]nc(CN)c4c3)cnn2C)cc1C` [Example 4-131, 2-(4-(4-(aminomethyl)-1-oxo-1,2-dihydrophthalazin-6-yl)-1-methyl-1H-pyrazol-5-yl)-4-5-dimethylbenzonitrile]: the IC50 is > 10000 nM with HCT116 parental cells; 43 nM in experiment [1]; 1890 nM at PRMT5/MEP50 complex; 3250 nM in experiment [2]; 847 nM in experiment [3].

Consider `Cn1ncc(-c2cc(F)c3c(=O)[nH]nc(CN)c3c2)c1-c1ccc2ccccc2c1C#N` [Example 10-2, 2-(4-(4-(aminomethyl)-8-fluoro-1-oxo-1,2-dihydrophthalazin-6-yl)-1-methyl-1H-pyrazol-5-yl)-1-naphthonitrile], for which the IC50 came out at 3380 nM in the experiment on HCT116 parental cells; 6 nM in experiment [1]; 67.2 nM on PRMT5/MEP50 complex; 2480 nM in experiment [2]; 112 nM in experiment [3].

Take `Cc1cc(Cl)c(C#N)c(-c2c(-c3ccc4c(=O)[nH]nc(CN)c4c3)cnn2C)c1` [Example 4-150, 2-(4-(4-(aminomethyl)-1-oxo-1,2-dihydrophthalazin-6-yl)-1-methyl-1H-pyrazol-5-yl)-6-chloro-4-methylbenzonitrile]: the IC50 in the experiment on HCT116 parental cells is > 10000 nM; in experiment [1], 18 nM; at PRMT5/MEP50 complex, 673 nM; in experiment [2], 8390 nM; in experiment [3], 661 nM.

For the compound `Cn1ncc(-c2cc(Cl)c3c(=O)[nH]nc(CN)c3c2)c1-c1ccc2ccccc2c1C#N` [Example 10-1, 2-(4-(4-(aminomethyl)-8-chloro-1-oxo-1,2-dihydrophthalazin-6-yl)-1-methyl-1H-pyrazol-5-yl)-1-naphthonitrile], the IC50 in the experiment on HCT116 parental cells was determined as 2300 nM; in experiment [1], 15 nM; at PRMT5/MEP50 complex, 41.7 nM; in experiment [2], 1120 nM; in experiment [3], 36 nM.

Consider `Cn1ncc(-c2ccc3c(=O)[nH]nc(CN)c3c2)c1-c1cc2ccccc2cc1C#N` [Example 4-128, 3-(4-(4-(aminomethyl)-1-oxo-1,2-dihydrophthalazin-6-yl)-1-methyl-1H-pyrazol-5-yl)-2-naphthonitrile], for which the IC50 with HCT116 parental cells worked out at 9630 nM; in experiment [1], 39 nM; on PRMT5/MEP50 complex it was 1310 nM; in experiment [2] it was 4020 nM; in experiment [3], 427 nM.

As to `CCc1cc(CC)c(C#N)c(-c2c(-c3ccc4c(=O)[nH]nc(CN)c4c3)cnn2C)c1` [Example 12-3, 2-[4-[4-(aminomethyl)-1-oxo-2H-phthalazin-6-yl]-2-methyl-pyrazol-3-yl]-4,6-diethyl-benzonitrile], the IC50 was 1690 nM with HCT116 parental cells; 8 nM in experiment [1]; 212 nM at PRMT5/MEP50 complex; > 1000 nM in experiment [2]; 137 nM in experiment [3].

With `CC(C)c1ccc(-c2c(-c3ccc4c(=O)[nH]nc(CN)c4c3)cnn2C)cc1` [Example 4-135, 4-(aminomethyl)-6-(5-(4-isopropylphenyl)-1-methyl-1H-pyrazol-4-yl)phthalazin-1(2H)-one], the IC50 in the experiment on HCT116 parental cells amounted to 6610 nM; in experiment [1], 31 nM; on PRMT5/MEP50 complex it was 641 nM; in experiment [2], 3210 nM; in experiment [3] it was 3760 nM.

For the compound `Cn1ncc(-c2ccc3c(=O)[nH]nc(CN)c3c2)c1-c1ccc2c(Cl)cccc2c1C#N` [Example 4-184, 2-(4-(4-(aminomethyl)-1-oxo-1,2-dihydrophthalazin-6-yl)-1-methyl-1H-pyrazol-5-yl)-5-chloro-1-naphthonitrile], the IC50 with HCT116 parental cells is 9400 nM; in experiment [1] it was 4 nM; at PRMT5/MEP50 complex it was 127 nM; in experiment [2], > 10000 nM; in experiment [3] it was 107 nM.

For `CCOc1ccc(-c2c(-c3ccc4c(=O)[nH]nc(CN)c4c3)cnn2C)cc1C#N` [Example 4-145, 5-(4-(4-(aminomethyl)-1-oxo-1,2-dihydrophthalazin-6-yl)-1-methyl-1H-pyrazol-5-yl)-2-ethoxybenzonitrile], the IC50 in the experiment on HCT116 parental cells is 3770 nM; in experiment [1], 190 nM; on PRMT5/MEP50 complex it was 873 nM; in experiment [2], 5490 nM; in experiment [3], 2160 nM.

On to `Cc1c(-c2cnn(C)c2)ccc(-c2c(-c3ccc4c(=O)[nH]nc(CN)c4c3)cnn2C)c1C#N` [Example 12-13, 6-(4-(4-(aminomethyl)-1-oxo-1,2-dihydrophthalazin-6-yl)-1-methyl-1H-pyrazol-5-yl)-2-methyl-3-(1-methyl-1H-pyrazol-4-yl)benzonitrile], for which the IC50 in the experiment on HCT116 parental cells was 2000 nM; in experiment [1], 95 nM; at PRMT5/MEP50 complex, 218 nM; in experiment [2], > 1000 nM; in experiment [3], 1410 nM.

Consider `Cn1ncc(-c2cc(F)c3c(=O)[nH]nc(CN)c3c2)c1-c1cccc(Cl)c1C#N` [Example 10-6, 2-(4-(4-(aminomethyl)-8-fluoro-1-oxo-1,2-dihydrophthalazin-6-yl)-1-methyl-1H-pyrazol-5-yl)-6-chlorobenzonitrile], for which the IC50 was > 10000 nM in the experiment on HCT116 parental cells; 219 nM in experiment [1]; 6630 nM at PRMT5/MEP50 complex; > 10000 nM in experiment [2]; 4090 nM in experiment [3].

As for `Cn1ncc(-c2ccc3c(=O)[nH]nc(CN)c3c2)c1-c1cnn(Cc2ccccc2)c1Cl` [Example 4-187, 4-(aminomethyl)-6-(1′-benzyl-5′-chloro-2-methyl-1′H,2H-[3,4′-bipyrazol]-4-yl)phthalazin-1(2H)-one], the IC50 amounted to 1360 nM in the experiment with HCT116 parental cells; 7 nM in experiment [1]; 239 nM on PRMT5/MEP50 complex; 1000 nM in experiment [2]; 1900 nM in experiment [3].
